In patent publication US20250121087A1, “ANTIBODY-DRUG CONJUGATES COMPRISING ANTI-B7-H3 ANTIBODIES” (priority 2020, published 2025):

Tested on: JIMT-1 xenograft
Experiment: In vivo efficacy, JIMT-1 tumor xenograft (tumor volume, body weight)
Details: control conjugate, 5 mg/kg i.v.; BALB/c nu/nu mice
Description: T-20-AB2.1, T-23-AB2.1, T-Int-102-D1-5 AB2.1, and T-Int0112-AB2.1 were prepared with 20 mg scale reaction. After purification by HIC column, final samples were concentrated to 5-10 mg/ml protein.
In vivo efficacy of T-20-AB2.1 and T-23-AB2.1 was measured by tumor xenograft studies in mice. Female BALB/c nu/nu were injected subcutaneously in the right flank with suspensions of 5×10^6 of JIMT-1 cells respectively in PBS. Mice were randomized into study groups when tumors reached approximately 150 mm^3. T-DM1 (5 mg/kg) and T-20-AB2.1 and T-23-AB2.1 conjugates (0.3 mg/kg, QW X^4) were given i.v. All treatment groups consisted of 6 to 10 animals per group, and tumor size was monitored twice weekly using caliper measurement. The tumor mass was calculated as volume=(width×width×length)/2.

T-DM1
activity in JIMT-1 xenograft versus the conjugates of the disclosure: less active
